Results taken from patent US20240082273A1, “NEUROKININ INHIBITORS SUCH AS APREPITANT FOR TREATING NON SMALL CELL LUNG CARCINOMA OR BREAST CANCER WITHOUT MUTATIONS” (priority 2020, published 2024).

Legend:
[1] = test system: breast cancer cell lines ER+/PR+/HER2− (MCF7, T47D); experiment: MTT proliferation, breast cancer cell lines ER+/PR+/HER2−; format: cell-based, human; settings: 48 hours
Method: All cells were cultured in wells under vendor-recommended conditions and exposed to different concentrations of aprepitant for 48 hours. In each case a group of wells of cells were used to which no treatment was applied and which were considered as controls. At 48 hours the number of cells was measured. To measure cell viability, the cytotoxicity of drugs in culture was evaluated using the 3-(4,5-Dimethyl-2-thiazolyl)-2,5-diphenyl-2H-tetrazolium bromide (MTT) reduction assay. This assay assesses cell viability through the indirect measurement of the activity of reductases that convert yellow soluble MTT into purple insoluble formazan salts. As MTT can only be reduced when these enzymes are active, the reaction is used as an indicator of the cell metabolic competence and, therefore, of viability. A variable number of cells (depending on the cell line) were seeded in 96 multi-well plates and grown during 24 hours. The following day, the culture medium was aspirated and fresh culture medium with the drug dissolved was added to the wells. After 24 hours or 48 hours cell viability was measurement by adding 10 μl of a 5 mg/ml MTT solution (M5655; Sigma-Aldrich) and 100 μl of HCl 0.01M-SDS 10% solution 4 hours later. After 24 hours, the absorbance was measured at 595 nm, using a multi-well plate reader (iMark, Bio-rad). Each condition was tested 5 times, obtaining 5 values of absorbance. All sample measurements were corrected using the blank (culture medium without cells) mean absorbance value, and normalized to positive control to determinate relative cell viability for each condition at 24 and 48 hours.

H441 = experiment: MTT proliferation, H441; format: cell-based, human; settings: 48 hours
Excerpt: (§1) EGFR, ALK and ROS1 are key molecular factors that may be used to determine pathological classification, prognosis, therapeutics and behaviour in patients with lung cancer. EGFR, ALK and ROS1 are biomarkers routinely analysed in the clinical practice of the management of patients with NSCLC. NSCLC with molecular profile EGFR-/ALK-/ROS1- presents a better response to treatment with the NK1 inhibitor aprepitant, compared to lung cancer with different profiles (in particular, EGFR+/ALK-/ROS1- and EGFR-/ALK+/ROS1-, in which EGFR and ALK respectively contain mutations relative to their wild type gene). Commercial lines of lung cancer were used as shown in Table 2 together with their molecular profile. The molecular profile of the cancer cell lines was determined by sequencing and can be consulted in the Cancer Cell Line Encyclopaedia database of public access available at the url: https://portals.broadinstitute.org/ccle All cells were cultured in wells under vendor-recommended conditions and exposed to different concentrations of aprepitant for 48 hours. In each case a group of wells of cells were used to which no treatment was applied and which were considered as controls. At 48 hours the number of cells was measured. Eight cell lines of human were used for the study of NK1 inhibitors (Table 3). All of them were maintained in culture in their respective culture media (Gibco,Thermo Fisher Scientific) supplemented with 10% foetal bovine serum (FBS) (Gibco, Thermo Fisher Scientific), 2 mM L-Glutamine (Gln) (Sigma-Aldrich, Merk), and […] and […] Gibco, Thermo Fisher Scientific) in a humidified incubator at 37° C. and 5% CO2. Cell culture media used are Dulbecco's Modified Eagle Medium (DMEM), and RPMI Medium 1640 (RPMI-1640). To measure cell viability, the cytotoxicity of drugs in culture was evaluated using the 3-(4,5-Dimethyl-2-thiazolyl)-2,5-diphenyl-2H-tetrazolium bromide (MTT) reduction assay. This assay assesses cell viability through the indirect measurement of the activity of reductases that convert yellow soluble MTT into purple insoluble formazan salts. As MTT can only be reduced when these enzymes are active, the reaction is used as an indicator of the cell metabolic competence and, therefore, of viability. A variable number of cells (depending on the cell line) were seeded in 96 multi-well plates and grown during 24 hours. The following day, the culture medium was aspirated and fresh culture medium with the drug dissolved was added to the wells. After 24 hours or 48 hours cell viability was measurement by adding 10 μl of a 5 mg/ml MTT solution (M5655; Sigma-Aldrich) and 100 μl of HCl 0.01M-SDS 10% solution 4 hours later. After 24 hours, the absorbance was measured at 595 nm, using a multi-well plate reader (iMark, Bio-rad). Each condition was tested 5 times, obtaining 5 values of absorbance. All sample measurements were corrected using the blank (culture medium without cells) mean absorbance value, and normalized to positive control to determinate relative cell viability for each condition at 24 and 48 hours.

[2] = daily dosing from 625 to 875 mg; cited from earlier work
H358 = experiment: MTT proliferation, H358; format: cell-based, human; settings: 48 hours
Excerpt: as §1

[3] = Xenograft mouse safety model (body weight, autopsy); format: in vivo, C57BL/6J mice
Method: Fosaprepitant dimeglumine salt (CAS No 265121-04-8) was purchased from Selleck Chemicals and administered intraperitoneally at 30, 60 and 100 mg/kg dose, once a day. Fosaprepitant is a pro-drug available for parenteral administration that in the body, once administered, becomes aprepitant.
3LL cells (0.6×10^6 per mouse) or B16F10 cells (1×10^6 per mouse) were subcutaneously injected into the right flank of C57BL/6J mice (Charles River) with matrigel (Matrigel Membrane Matrix, Corning) at 50% v/v. Tumour growth was evaluated every 2/3 days. Animal vital parameters were monitored daily. When the tumours reached an average volume of 100-150 mm ^3, mice were randomized into cohorts of 6 animals each and treatments were administered for 7-9 days. Groups and regimens for each experiment are described in Table 1. Animals of the control group were dosed with equal volume of vehicle. Animals were euthanized according to institutional guidelines and tumour samples were excised. Tumours were snap-frozen in OCT medium (Sakura Tissue Tek) or fixed in PFA and embedded in paraffin. Several internal organs were also excised and fixed in PFA for future studies.

## C[C@@H](O[C@H]1OCCN(Cc2nc(=O)[nH][nH]2)[C@H]1c1ccc(F)cc1)c1cc(C(F)(F)F)cc(C(F)(F)F)c1 [Aprepitant]
[1]; aprepitant 0.3 μM
  Mean proliferation: 102.47
[1]; aprepitant 1 μM
  Mean proliferation: 99.16
[1]; aprepitant 3 μM
  Mean proliferation: 106.96
[1]; aprepitant 10 μM
  Mean proliferation: 81.55
[1]; aprepitant 20 μM
  Mean proliferation: 67.98
[1]; aprepitant 30 μM
  Mean proliferation: 54.13
[1]; aprepitant 40 μM
  Mean proliferation: 35.22
[1]; aprepitant 50 μM
  Mean proliferation: 21.79
[1]; aprepitant 60 μM
  Mean proliferation: 11.7
H441; aprepitant 1 μM
  Mean proliferation: 100.6
H441; aprepitant 3 μM
  Mean proliferation: 90.97
H441; aprepitant 5 μM
  Mean proliferation: 64.10
H441; aprepitant 10 μM
  Mean proliferation: 61.08
H441; aprepitant 20 μM
  Mean proliferation: 53.64
H441; aprepitant 30 μM
  Mean proliferation: 37.56
H441; aprepitant 40 μM
  Mean proliferation: 20.50
H441; aprepitant 50 μM
  Mean proliferation: 3.14
H441; aprepitant 60 μM
  Mean proliferation: 10.83
[2]
  plasma trough level: 2.65 µg/mL
  plasma trough level (equivalent): 5 µM
H358; aprepitant 1 μM
  Mean proliferation: 101.3
H358; aprepitant 3 μM
  Mean proliferation: 89.28
H358; aprepitant 5 μM
  Mean proliferation: 87.69
H358; aprepitant 10 μM
  Mean proliferation: 64.12
H358; aprepitant 20 μM
  Mean proliferation: 43.44
H358; aprepitant 30 μM
  Mean proliferation: 32.09
H358; aprepitant 40 μM
  Mean proliferation: 27.23
H358; aprepitant 50 μM
  Mean proliferation: 3.10
H358; aprepitant 60 μM
  Mean proliferation: 2.86
[3]; all animals, 30, 60 and 100 mg/kg/day
  autopsy, organs explored microscopically: signs of toxicity: no significant signs of toxicity
[3]; mouse, in vivo, 100 mg/kg/day
  safety (body weight, histological study of the main organs): safe
